Results from US20260262643A1, “HERBICIDAL BENZOXAZINES” (FMC CORPORATION, priority 2022, published 2026).

Assays:
galium = assay: Test A postemergence; format: in vivo, Galium aparine
Summary of the method: (§1)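 Visual injury ratings on a 0–100 scale (100 = complete control) versus untreated controls, taken 10 days after treatment in greenhouse. Preemergence: directed soil spray onto seeded loam/sand. Postemergence: foliar application at one- to two-leaf stage, plants 2–10 cm. Formulation: non-phytotoxic solvent plus surfactant.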

foxtail, giant [1] = assay: Test A preemergence; format: in vivo, Setaria faberi
Summary of the method: as §1

oat, wild [2] = assay: Test A postemergence; format: in vivo, Avena fatua
Summary of the method: as §1

kochia [3] = assay: Test A preemergence; format: in vivo, Bassia scoparia
Summary of the method: as §1

pigweed, palmer [4] = assay: Test A postemergence; format: in vivo, Amaranthus palmeri
Summary of the method: as §1

rice = assay: Test B flooded paddy test; format: in vivo, Oryza sativa; details: 250 g ai/ha, Flood, 13 days, 0 to 100 scale (0 no effect, 100 complete control)
Summary of the method: (§2)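 Species grown to 2-leaf stage; pots flooded 3 cm above soil and compound applied directly to paddy water, depth maintained throughout. After 13 days in greenhouse, plants visually rated against controls on 0–100 scale (0 no effect, 100 complete control); dash means no result.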

corn [5] = assay: Test A postemergence; format: in vivo, Zea mays
Summary of the method: as §1

foxtail, giant [6] = assay: Test A postemergence; format: in vivo, Setaria faberi
Summary of the method: as §1

ragweed [7] = assay: Test A preemergence; format: in vivo, Ambrosia artemisiifolia
Summary of the method: as §1

wheat [8] = assay: Test A preemergence; format: in vivo, Triticum aestivum
Summary of the method: as §1

barnyardgrass = assay: Test B flooded paddy test; format: in vivo, Echinochloa crus-galli; details: 250 g ai/ha, Flood, 13 days, 0 to 100 scale (0 no effect, 100 complete control)
Summary of the method: as §2

goosegrass [9] = assay: Test A preemergence; format: in vivo, Eleusine indica
Summary of the method: as §1

kochia [10] = assay: Test A postemergence; format: in vivo, Bassia scoparia
Summary of the method: as §1

horseweed = assay: Test A postemergence; format: in vivo, Erigeron canadensis
Summary of the method: as §1

ryegrass, Italian [11] = assay: Test A preemergence; format: in vivo, Lolium multiflorum
Summary of the method: as §1

sedge, umbrella = assay: Test B flooded paddy test; format: in vivo, Cyperus difformis; details: 250 g ai/ha, Flood, 13 days, 0 to 100 scale (0 no effect, 100 complete control)
Summary of the method: as §2

wheat [12] = assay: Test A postemergence; format: in vivo, Triticum aestivum
Summary of the method: as §1

oat, wild [13] = assay: Test A preemergence; format: in vivo, Avena fatua
Summary of the method: as §1

soybean [14] = assay: Test A postemergence; format: in vivo, Glycine max
Summary of the method: as §1

blackgrass [15] = assay: Test A preemergence; format: in vivo, Alopecurus myosuroides
Summary of the method: as §1

corn [16] = assay: Test A preemergence; format: in vivo, Zea mays
Summary of the method: as §1

ryegrass, Italian [17] = assay: Test A postemergence; format: in vivo, Lolium multiflorum
Summary of the method: as §1

blackgrass [18] = assay: Test A postemergence; format: in vivo, Alopecurus myosuroides
Summary of the method: as §1

pigweed, palmer [19] = assay: Test A preemergence; format: in vivo, Amaranthus palmeri
Summary of the method: as §1

ducksalad = assay: Test B flooded paddy test; format: in vivo, Heteranthera limosa; details: 250 g ai/ha, Flood, 13 days, 0 to 100 scale (0 no effect, 100 complete control)
Summary of the method: as §2

ragweed [20] = assay: Test A postemergence; format: in vivo, Ambrosia artemisiifolia
Summary of the method: as §1

goosegrass [21] = assay: Test A postemergence; format: in vivo, Eleusine indica
Summary of the method: as §1

soybean [22] = assay: Test A preemergence; format: in vivo, Glycine max
Summary of the method: as §1

[23] = 125 g ai/ha, postemergence, 10 days, visual injury, 0 to 100 scale (0 no effect, 100 complete control)
[24] = 500 g ai/ha, Postemergence, 0 to 100 scale
[25] = 125 g ai/ha, visual injury after 10 days, 0 to 100 scale, 0 is no effect, 100 is complete control
[26] = 500 g ai/ha, 0 to 100 scale (0 no effect, 100 complete control), 10 days

## O=C(c1cccc(-n2cncn2)c1)N1CC(C(F)(F)F)Oc2c(Cl)cccc21 (stereo not shown) [Compound 59]
galium; [23]
  Plant response rating, Galium: 90
galium; [24]
  Plant response rating, Galium: 100
foxtail, giant [1]; [25]
  Plant response rating, Foxtail, Giant: 90
foxtail, giant [1]; [26]
  Plant response rating, Foxtail, Giant: 100
oat, wild [2]; [23]
  Plant response rating, Oat, Wild: 10
oat, wild [2]; [24]
  Plant response rating, Oat, Wild: 50
Kochia [3]; [25]
  Plant response rating, Kochia: 0
Kochia [3]; [26]
  Plant response rating, Kochia: 90
pigweed, palmer [4]; [23]
  Plant response rating, Pigweed, Palmer: 20
pigweed, palmer [4]; [24]
  Plant response rating, Pigweed, Palmer: 50
rice
  Plant response rating, Rice: 0
Corn [5]; [24]
  Plant response rating, Corn: 20
foxtail, giant [6]; [23]
  Plant response rating, Foxtail, Giant: 40
foxtail, giant [6]; [24]
  Plant response rating, Foxtail, Giant: 90
Ragweed [7]; [25]
  Plant response rating, Ragweed: 0
Ragweed [7]; [26]
  Plant response rating, Ragweed: 0
Wheat [8]; [25]
  Plant response rating, Wheat: 0
Wheat [8]; [26]
  Plant response rating, Wheat: 50
barnyardgrass
  Plant response rating, Barnyardgrass: 0
Goosegrass [9]; [25]
  Plant response rating, Goosegrass: 90
Goosegrass [9]; [26]
  Plant response rating, Goosegrass: 100
Kochia [10]; [23]
  Plant response rating, Kochia: 10
Kochia [10]; [24]
  Plant response rating, Kochia: 70
horseweed; [23]
  Plant response rating, Horseweed: 0
horseweed; [24]
  Plant response rating, Horseweed: 0
ryegrass, Italian [11]; [25]
  Plant response rating, Ryegrass, Italian: 90
ryegrass, Italian [11]; [26]
  Plant response rating, Ryegrass, Italian: 100
sedge, umbrella
  Plant response rating, Sedge, Umbrella: 0
Wheat [12]; [23]
  Plant response rating, Wheat: 10
Wheat [12]; [24]
  Plant response rating, Wheat: 40
oat, wild [13]; [25]
  Plant response rating, Oat, Wild: 20
oat, wild [13]; [26]
  Plant response rating, Oat, Wild: 90
Soybean [14]; [24]
  Plant response rating, Soybean: 100
Blackgrass [15]; [25]
  Plant response rating, Blackgrass: 0
Blackgrass [15]; [26]
  Plant response rating, Blackgrass: 60
Corn [16]; [26]
  Plant response rating, Corn: 20
ryegrass, Italian [17]; [23]
  Plant response rating, Ryegrass, Italian: 0
ryegrass, Italian [17]; [24]
  Plant response rating, Ryegrass, Italian: 60
Blackgrass [18]; [23]
  Plant response rating, Blackgrass: 20
Blackgrass [18]; [24]
  Plant response rating, Blackgrass: 80
pigweed, palmer [19]; [25]
  Plant response rating, Pigweed, Palmer: 10
pigweed, palmer [19]; [26]
  Plant response rating, Pigweed, Palmer: 100
ducksalad
  Plant response rating, Ducksalad: 0
Ragweed [20]; [23]
  Plant response rating, Ragweed: 40
Ragweed [20]; [24]
  Plant response rating, Ragweed: 40
Goosegrass [21]; [23]
  Plant response rating, Goosegrass: 20
Goosegrass [21]; [24]
  Plant response rating, Goosegrass: 50
Soybean [22]; [26]
  Plant response rating, Soybean: 90

## Cc1cccc2c1O[C@@H](C)CN2C(=O)c1cccc(-n2cnc(C3CC3)n2)c1 [Compound 54]
galium; [23]
  Plant response rating, Galium: 100
galium; [24]
  Plant response rating, Galium: 100
foxtail, giant [1]; [25]
  Plant response rating, Foxtail, Giant: 90
foxtail, giant [1]; [26]
  Plant response rating, Foxtail, Giant: 100
oat, wild [2]; [23]
  Plant response rating, Oat, Wild: 20
oat, wild [2]; [24]
  Plant response rating, Oat, Wild: 40
Kochia [3]; [25]
  Plant response rating, Kochia: 80
Kochia [3]; [26]
  Plant response rating, Kochia: 90
pigweed, palmer [4]; [23]
  Plant response rating, Pigweed, Palmer: 50
pigweed, palmer [4]; [24]
  Plant response rating, Pigweed, Palmer: 60
rice
  Plant response rating, Rice: 30
Corn [5]; [23]
  Plant response rating, Corn: 30
Corn [5]; [24]
  Plant response rating, Corn: 40
foxtail, giant [6]; [23]
  Plant response rating, Foxtail, Giant: 70
foxtail, giant [6]; [24]
  Plant response rating, Foxtail, Giant: 90
Ragweed [7]; [25]
  Plant response rating, Ragweed: 0
Ragweed [7]; [26]
  Plant response rating, Ragweed: 0
Wheat [8]; [25]
  Plant response rating, Wheat: 20
Wheat [8]; [26]
  Plant response rating, Wheat: 30
barnyardgrass
  Plant response rating, Barnyardgrass: 25
Goosegrass [9]; [25]
  Plant response rating, Goosegrass: 90
Goosegrass [9]; [26]
  Plant response rating, Goosegrass: 100
Kochia [10]; [23]
  Plant response rating, Kochia: 80
Kochia [10]; [24]
  Plant response rating, Kochia: 90
horseweed; [23]
  Plant response rating, Horseweed: 0
horseweed; [24]
  Plant response rating, Horseweed: 20
ryegrass, Italian [11]; [25]
  Plant response rating, Ryegrass, Italian: 70
ryegrass, Italian [11]; [26]
  Plant response rating, Ryegrass, Italian: 100
sedge, umbrella
  Plant response rating, Sedge, Umbrella: 90
Wheat [12]; [23]
  Plant response rating, Wheat: 20
Wheat [12]; [24]
  Plant response rating, Wheat: 40
oat, wild [13]; [25]
  Plant response rating, Oat, Wild: 20
oat, wild [13]; [26]
  Plant response rating, Oat, Wild: 50
Soybean [14]; [23]
  Plant response rating, Soybean: 100
Soybean [14]; [24]
  Plant response rating, Soybean: 100
Blackgrass [15]; [25]
  Plant response rating, Blackgrass: 40
Blackgrass [15]; [26]
  Plant response rating, Blackgrass: 80
Corn [16]; [25]
  Plant response rating, Corn: 30
Corn [16]; [26]
  Plant response rating, Corn: 60
ryegrass, Italian [17]; [23]
  Plant response rating, Ryegrass, Italian: 30
ryegrass, Italian [17]; [24]
  Plant response rating, Ryegrass, Italian: 60
Blackgrass [18]; [23]
  Plant response rating, Blackgrass: 0
Blackgrass [18]; [24]
  Plant response rating, Blackgrass: 50
pigweed, palmer [19]; [25]
  Plant response rating, Pigweed, Palmer: 60
pigweed, palmer [19]; [26]
  Plant response rating, Pigweed, Palmer: 100
ducksalad
  Plant response rating, Ducksalad: 30
Ragweed [20]; [23]
  Plant response rating, Ragweed: 0
Ragweed [20]; [24]
  Plant response rating, Ragweed: 50
Goosegrass [21]; [23]
  Plant response rating, Goosegrass: 40
Goosegrass [21]; [24]
  Plant response rating, Goosegrass: 50
Soybean [22]; [25]
  Plant response rating, Soybean: 0
Soybean [22]; [26]
  Plant response rating, Soybean: 40
